Article PMC3163380, “Design, Synthesis and Biological Evaluation of Novel Pyrimido[4,5-d]pyrimidine CDK2 Inhibitors as Anti-Tumor Agents” (Scientia Pharmaceutica, 2011)

Tests used:
[1] = system: RXF 393; assay: NCI primary anti-cancer assay (SRB), RXF 393; format: cell-based, human; conditions: Homo sapiens, RXF 393, 10^−5M; Renal Cancer RXF 393; read-out: Growth Inhibition %
Experimental: (§1) Evaluation of anti-cancer activities on pyrimido[4,5-d]pyrimidine derivatives were performed at the National Cancer Institute (NCI) USA. First the newly synthesized compounds have been evaluated in primary anti-cancer assay at 10^−5M concentration against 60 human tumor cell lines then the active compounds were tested at 5 different concentrations against the same 60 human tumor cell lines. The biological data for the newly synthesized compounds are compiled in table 2
(§2) The cytotoxic activity was measured in vitro for the newly synthesized compounds using the SulfoRhodamine-B stain (SRB) assay using the method of Skehan. Cells were plated in 96-multiwell microtiter plate (10^4 cells/well) for 24 h before treatment with the compound(s) to allow attachment of cell to the wall of the plate. Tested compounds were dissolved in DMSO and diluted with saline to the appropriate volume. Triplicate wells were prepared for each individual dose. Monolayer cells were incubated with the compound(s) for 48 h at 37 °C and in atmosphere of 5% CO2. After 48 h, cells were fixed, washed, and stained for 30 min with 0.4% (wt/vol) with SRB dissolved in 1% acetic acid. Unbound dye was removed by four washes with 1% acetic acid, and attached stain was recovered with Tris-EDTA buffer. Color intensity was measured in an ELISA reader. The relation between surviving fraction and drug concentration is plotted to get the survival curve for tumor cell line after the specified time.

[2] = target: CDK4/CyclinD (Homo sapiens, UniProt P11802); assay: CDK4/CyclinD inhibition assay; format: biochemical; conditions: mean of at least two independent experiments
[3] = system: SF-539; assay: NCI primary anti-cancer assay (SRB), SF-539; format: cell-based; conditions: Homo sapiens; 10^−5M; CNS Cancer SF-539; read-out: Growth Inhibition %
Experimental: as §1, §2

[4] = target: T1, CDK2/CyclinA (Homo sapiens, UniProt P24941); assay: CDK2/cyclinA enzymatic activity inhibition assay (32P-ATP, histone H1); format: biochemical; conditions: mean of at least two independent experiments
T1 construct: hexa-histidine (N); made in house; host or cells: sf21 insect cells (baculovirus)

[5] = system: HL-60(TB); assay: NCI primary anti-cancer assay (SRB), HL-60(TB); format: cell-based; conditions: Homo sapiens; 10^−5M; Leukemia HL-60(TB); read-out: Growth Inhibition %
Experimental: as §1, §2

[6] = system: RPMI-8226; assay: NCI primary anti-cancer assay (SRB), RPMI-8226; format: cell-based; conditions: Homo sapiens; 10^−5M; Leukemia RPMI-8226; read-out: Growth Inhibition %
Experimental: as §1, §2

[7] = system: HS 578T; assay: NCI primary anti-cancer assay (SRB), HS 578T; format: cell-based; conditions: Homo sapiens; 10^−5M; Breast Cancer HS 578T; read-out: Growth Inhibition %
Experimental: as §1, §2

[8] = target: T2, human EGFR tyrosine kinase domain (Homo sapiens, UniProt P00533); assay: EGFR tyrosine kinase inhibition assay; format: biochemical; conditions: mean of at least two independent experiments
T2 construct: C-terminal human EGFR tyrosine kinase domain

[9] = system: K-562; assay: NCI primary anti-cancer assay (SRB), K-562; format: cell-based; conditions: Homo sapiens, K562; 10^−5M; Leukemia K-562; read-out: Growth Inhibition %
Experimental: as §1, §2

[10] = system: HOP-92; assay: NCI primary anti-cancer assay (SRB), HOP-92; format: cell-based; conditions: Homo sapiens; 10^−5M; Non-Small Cell Lung Cancer HOP-92; read-out: Growth Inhibition %
Experimental: as §1, §2

[11] = system: MOLT-4; assay: NCI primary anti-cancer assay (SRB), MOLT-4; format: cell-based; conditions: Homo sapiens; 10^−5M; Leukemia MOLT-4; read-out: Growth Inhibition %
Experimental: as §1, §2

[12] = system: UO-31; assay: NCI primary anti-cancer assay (SRB), UO-31; format: cell-based; conditions: Homo sapiens; 10^−5M; Renal Cancer UO-31; read-out: Growth Inhibition %
Experimental: as §1, §2

[13] = system: IGROV1; assay: NCI primary anti-cancer assay (SRB), IGROV1; format: cell-based; conditions: Homo sapiens, IGROV-1; 10^−5M; Ovarian Cancer IGROV1; read-out: Growth Inhibition %
Experimental: as §1, §2

[14] = system: SNB-75; assay: NCI primary anti-cancer assay (SRB), SNB-75; format: cell-based; conditions: Homo sapiens; 10^−5M; CNS Cancer SNB-75; read-out: Growth Inhibition %
Experimental: as §1, §2

[15] = system: A549/ATCC; assay: NCI primary anti-cancer assay (SRB), A549/ATCC; format: cell-based; conditions: Homo sapiens; 10^−5M; Non-Small Cell Lung Cancer A549/ATCC; read-out: Growth Inhibition %
Experimental: as §1, §2

[16] = system: 60 human tumor cell lines; assay: NCI primary anti-cancer assay, summary over tumor cell lines; format: cell-based; conditions: 10^−5M, Non-small cell lung cancer, Ovarian cancer, Leukemia and Melanoma lines / different tumor cell lines, read-out: growth inhibitions (range over cell lines)
Experimental: as §1, §2

[17] = system: UACC-257; assay: NCI primary anti-cancer assay (SRB), UACC-257; format: cell-based; conditions: Homo sapiens; 10^−5M; Melanoma UACC-257; read-out: Growth Inhibition %
Experimental: as §1, §2

[18] = system: OVCAR-8; assay: NCI primary anti-cancer assay (SRB), OVCAR-8; format: cell-based; conditions: Homo sapiens; 10^−5M; Ovarian Cancer OVCAR-8; read-out: Growth Inhibition %
Experimental: as §1, §2

[19] = system: MDA-MB-231/ATCC; assay: NCI primary anti-cancer assay (SRB), MDA-MB-231/ATCC; format: cell-based; conditions: Homo sapiens; 10^−5M; Breast Cancer MDA-MB-231/ATCC; read-out: Growth Inhibition %
Experimental: as §1, §2

[20] = system: BT-549; assay: NCI primary anti-cancer assay (SRB), BT-549; format: cell-based; conditions: Homo sapiens; 10^−5M; Breast Cancer BT-549; read-out: Growth Inhibition %
Experimental: as §1
as §2, with “The relation between surviving fraction and drug concentration is plotted to get the survival curve for tumor cell line after the specified time.” left out

[21] = system: MCF7; assay: NCI primary anti-cancer assay (SRB), MCF7; format: cell-based; conditions: Homo sapiens; 10^−5M; Breast Cancer MCF7; read-out: Growth Inhibition %
Experimental: as §1
as §2, with “The relation between surviving fraction and drug concentration is plotted to get the survival curve for tumor cell line after the specified time.” left out

[22] = system: T-47D; assay: NCI primary anti-cancer assay (SRB), T-47D; format: cell-based; conditions: Homo sapiens, T47D; 10^−5M; Breast Cancer T-47D; read-out: Growth Inhibition %
Experimental: as §1, §2

Chain of CDK4/CyclinD (P11802 whole entry, species assumed): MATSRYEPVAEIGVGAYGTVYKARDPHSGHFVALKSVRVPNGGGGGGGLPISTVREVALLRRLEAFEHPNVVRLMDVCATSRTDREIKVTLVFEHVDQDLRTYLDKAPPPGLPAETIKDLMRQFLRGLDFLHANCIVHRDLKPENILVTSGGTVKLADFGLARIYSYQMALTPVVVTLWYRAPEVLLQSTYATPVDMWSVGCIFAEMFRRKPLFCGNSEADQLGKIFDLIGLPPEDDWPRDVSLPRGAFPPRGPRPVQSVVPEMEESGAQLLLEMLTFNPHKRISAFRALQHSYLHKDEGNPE
Chain of CDK4/CyclinD (P24385 whole entry partner, species assumed): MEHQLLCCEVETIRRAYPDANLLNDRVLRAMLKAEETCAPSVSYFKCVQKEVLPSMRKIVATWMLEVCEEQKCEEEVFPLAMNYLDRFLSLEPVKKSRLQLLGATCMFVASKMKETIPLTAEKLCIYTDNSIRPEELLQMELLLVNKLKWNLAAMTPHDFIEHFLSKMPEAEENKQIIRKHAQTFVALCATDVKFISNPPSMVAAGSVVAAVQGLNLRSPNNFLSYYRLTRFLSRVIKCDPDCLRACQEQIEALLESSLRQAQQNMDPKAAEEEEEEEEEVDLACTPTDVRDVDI
T2 sequence (P00533 712-979 limits assumed): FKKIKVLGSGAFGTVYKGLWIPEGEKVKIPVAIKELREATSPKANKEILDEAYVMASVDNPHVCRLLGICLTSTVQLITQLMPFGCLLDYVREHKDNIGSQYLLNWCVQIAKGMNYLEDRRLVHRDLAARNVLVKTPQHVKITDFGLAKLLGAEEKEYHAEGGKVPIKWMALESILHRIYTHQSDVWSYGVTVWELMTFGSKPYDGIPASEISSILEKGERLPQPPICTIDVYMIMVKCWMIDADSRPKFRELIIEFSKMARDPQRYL

| Structure (SMILES) | IC50 [2] [µM] | IC50 [4] [µM] | inhibition at 10 µM [5] [%] | inhibition at 10 µM [6] [%] | IC50 [8] [µM] | inhibition at 10 µM [9] [%] | inhibition at 10 µM [10] [%] | inhibition at 10 µM [11] [%] | inhibition at 10 µM [12] [%] | inhibition at 10 µM [13] [%] | inhibition at 10 µM [14] [%] | melting point [°C] | inhibition at 10 µM [15] [%] | inhibition at 10 µM [16] [%] | inhibition at 10 µM [17] [%] | inhibition at 10 µM [18] [%] | IC50 CDK4/CyclinD [2] | other results |
| --- | --- | --- | --- | --- | --- | --- | --- | --- | --- | --- | --- | --- | --- | --- | --- | --- | --- | --- |
| Cc1nc(Nc2ccc(NC(=S)Nc3ccccc3)cc2)nc2nc(Nc3cccc(Cl)c3)[nH]c(=O)c12 [Compound 7e, 1-[4-({7-[(3-Chlorophenyl)amino]-4-methyl-5-oxo-5,6-dihydropyrimido[4,5-d]pyrimidin-2-yl}amino)phenyl]-3-phenylthiourea] | 2.55 | 0.25 | 42.9 | 42.8 | 4.9 | 28.2 | 39.6 | 35 |  |  |  |  |  |  |  |  |  | inhibition at 10 µM [1]: 113%; inhibition at 10 µM [3]: 23.5%; inhibition at 10 µM [7]: 32.9% |
| Cc1cc(C)nc(NS(=O)(=O)c2ccc(Nc3nc(C)c4c(=O)[nH]c(Nc5cccc(Cl)c5)nc4n3)cc2)n1 [Compound 7f, 4-({7-[(3-Chlorophenyl)amino]-4-methyl-5-oxo-5,6-dihydropyrimido[4,5-d]pyrimidin-2-yl}amino)-N-(4,6-dimethylpyrimidin-2-yl)benzenesulfonamide] | 0.86 | 0.05 | 21.6 | 58.9 | > 10 | 26.5 | 34.8 |  | 40.3 | 54.4 | 28.5 | > 300 | 52 | 50 to 70 | 57.9 | 21.8 |  | inhibition at 10 µM [19]: 30.4% |
| Cc1cc(C)nc(NS(=O)(=O)c2ccc(Nc3nc(-c4ccc(O)cc4O)c4c(=O)[nH]c(SCc5ccccc5)nc4n3)cc2)n1 [Compound 6b, 4-{[7-(Benzylsulfanyl)-4-(2,4-dihydroxyphenyl)-5-oxo-5,6-dihydropyrimido[4,5-d]pyrimidin-2-yl]amino}-N-(4,6-dimethylpyrimidin-2-yl)benzenesulfonamide] | 2.14 | 2.8 |  |  | 5.5 | 20.1 |  |  |  | 30.7 |  | > 300 |  |  |  | 38.7 |  | inhibition at 10 µM [20]: 29.1% |
| O=c1[nH]c(Nc2ccc(S(=O)(=O)O)cc2)nc2nc(Nc3ccc(NC(=S)Nc4ccccc4)cc3)nc(-c3ccc(O)cc3O)c12 [Compound 7g, 4-{[5-(2,4-Dihydroxyphenyl)-4-oxo-7-({4-[(phenylcarbamothioyl)amino]phenyl}amino)-3,4-dihydropyrimido[4,5-d]pyrimidin-2-yl]amino}benzenesulfonic acid] | 5.21 | 6.5 |  |  | 7.3 | 20.1 | 29.1 |  |  |  |  | > 300 |  |  | 32.7 |  | very poor activity | inhibition at 10 µM [21]: 33.3% |
| Cc1nc(Nc2ccc(NC(=S)Nc3ccccc3)cc2)nc2nc(Nc3ccc(S(=O)(=O)O)cc3)[nH]c(=O)c12 [Compound 7h, 4-{[5-Methyl-4-oxo-7-({4-[(phenylcarbamothioyl)amino]phenyl}amino)-3,4-dihydropyrimido[4,5-d]pyrimidin-2-yl]amino}benzenesulfonic acid] | > 10 | 6 | 29 | 52.5 | > 10 |  | 24.3 | 20.8 | 21.1 | 28 |  | > 300 |  | 50 to 70 |  | 50.2 | no activity | inhibition at 10 µM [20]: 39% |
| Cc1cc(C)nc(NS(=O)(=O)c2ccc(Nc3nc(C)c4c(=O)[nH]c(NCc5ccccc5)nc4n3)cc2)n1 [Compound 7c, 4-{[7-(Benzylamino)-4-methyl-5-oxo-5,6-dihydropyrimido[4,5-d]pyrimidin-2-yl]amino}-N-(4,6-dimethylpyrimidin-2-yl)benzenesulfonamide] | > 10 | 2.6 | 23.1 | 50.7 | 6.6 | 32.8 |  | 22.6 | 39.5 | 61.7 | 43.1 |  | 64.4 | 50 to 70 | 71.4 |  | no activity | inhibition at 10 µM [22]: 23.4% |
| Cc1cc(C)nc(NS(=O)(=O)c2ccc(Nc3nc(C)c4c(=O)[nH]c(Nc5ccc(S(=O)(=O)O)cc5)nc4n3)cc2)n1 [Compound 7i, 4-{[7-({4-[(4,6-Dimethylpyrimidin-2-yl)sulfamoyl]phenyl}amino)-5-methyl-4-oxo-3,4-dihydro-pyrimido[4,5-d]pyrimidin-2-yl]amino}benzenesulfonic acid] | > 10 | > 10 |  |  | 8.1 |  |  |  | 30.6 |  | 23.2 | > 300 | 39.1 |  |  |  | no activity | inhibition at 10 µM [22]: 30.1%; inhibition at 10 µM [7]: 26.2% |
